Reference: ChEMBL document CHEMBL1201862, “PubChem BioAssay data set” (2004)
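Where inhibition never reached the appropriate level, the endpoint shown equals the highest concentration tested. Otherwise, values were interpolated linearly from a five-concentration, 48-hour dose response in 96-well plates. GI50 marks 50% less growth.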 Active and inactive are the calls of the source. Cut-off read from the data, not from the text of the source: active = GI50 up to about 1.1 µM and inactive = higher.

How the values were obtained:
Experiment in all cases: DTP human tumour cell line panel, 48 h
SF-295 = system: SF-295
BT-549 = system: BT-549
Hs-578T = system: Hs-578T
SW-620 = system: SW-620
EKVX = system: EKVX
HOP-92 = system: HOP-92
OVCAR-3 = system: OVCAR-3
M14 = system: M14
UACC-62 = system: UACC-62
RXF 393 = system: RXF 393
NCI-H522 = system: NCI-H522
CAKI-1 = system: CAKI-1
SR = system: SR
SK-MEL-28 = system: SK-MEL-28
MDA-MB-231 = system: MDA-MB-231
SNB-75 = system: SNB-75
Malme-3M = system: Malme-3M
MOLT-4 = system: MOLT-4
COLO 205 = system: COLO 205
IGROV-1 = system: IGROV-1
NCI-H23 = system: NCI-H23
OVCAR-4 = system: OVCAR-4
DU-145 = system: DU-145
OVCAR-5 = system: OVCAR-5
T47D = system: T47D
SF-539 = system: SF-539
MDA-N = system: MDA-N
K562 = system: K562
HCT-15 = system: HCT-15
TK-10 = system: TK-10
NCI-H226 = system: NCI-H226
HL-60 = system: HL-60
SN12C = system: SN12C
UO-31 = system: UO-31
KM12 = system: KM12
786-0 = system: 786-0
RPMI-8226 = system: RPMI-8226
HCT-116 = system: HCT-116
OVCAR-8 = system: OVCAR-8
HOP-62 = system: HOP-62
A549 = system: A549
MCF7 = system: MCF7
PC-3 = system: PC-3
SF-268 = system: SF-268
NCI-H460 = system: NCI-H460
LOX IMVI = system: LOX IMVI
NCI/ADR-RES = system: NCI/ADR-RES
SK-MEL-2 = system: SK-MEL-2
SK-MEL-5 = system: SK-MEL-5
SNB-19 = system: SNB-19
A498 = system: A498
HT-29 = system: HT-29
U-251 = system: U-251
ACHN = system: ACHN
UACC-257 = system: UACC-257
CCRF-CEM = system: CCRF-CEM
SK-OV-3 = system: SK-OV-3
MDA-MB-435 = system: MDA-MB-435

`O=C(O)CCC[C@]1(O)O[C@@]2(CCCC2=O)[C@]2(O)CCC[C@@]21O` was tested, and the GI50 (SF-295) was 4.24 µM (inactive), the GI50 (BT-549) was > 100 µM (inactive) and the GI50 (Hs-578T) was > 100 µM (inactive). For the same compound, the GI50 (SW-620) was > 100 µM (inactive), the GI50 (EKVX) was > 100 µM (inactive) and the GI50 (HOP-92) was > 100 µM (inactive). For the same compound, the GI50 (OVCAR-3) was > 100 µM (inactive), the GI50 (M14) was > 100 µM (inactive) and the GI50 (UACC-62) was > 100 µM (inactive). The GI50 (RXF 393) was > 100 µM (inactive), the GI50 (NCI-H522) was 0.106 µM (active) and the GI50 (CAKI-1) was 26.5 µM (inactive). The GI50 (SR) was > 100 µM (inactive), the GI50 (SK-MEL-28) was > 100 µM (inactive) and the GI50 (MDA-MB-231) was > 100 µM (inactive). The GI50 (SNB-75) was > 100 µM (inactive), the GI50 (Malme-3M) was > 100 µM (inactive) and the GI50 (MOLT-4) was > 100 µM (inactive). For the same compound, the GI50 (COLO 205) was > 100 µM (inactive), the GI50 (IGROV-1) was > 100 µM (inactive) and the GI50 (NCI-H23) was > 100 µM (inactive). For the same compound, the GI50 (OVCAR-4) was > 100 µM (inactive), the GI50 (DU-145) was > 100 µM (inactive) and the GI50 (OVCAR-5) was > 100 µM (inactive). The GI50 (T47D) was > 100 µM (inactive), the GI50 (SF-539) was > 100 µM (inactive) and the GI50 (MDA-N) was > 100 µM (inactive). For the same compound, the GI50 (K562) was > 100 µM (inactive), the GI50 (HCT-15) was > 100 µM and the GI50 (TK-10) was > 100 µM (inactive). For the same compound, the GI50 (NCI-H226) was > 100 µM (inactive), the GI50 (HL-60) was > 100 µM (inactive) and the GI50 (SN12C) was > 100 µM (inactive). The GI50 (UO-31) was > 100 µM (inactive), the GI50 (KM12) was > 100 µM (inactive) and the GI50 (786-0) was > 100 µM (inactive). For the same compound, the GI50 (RPMI-8226) was > 100 µM (inactive), the GI50 (HCT-116) was > 100 µM (inactive) and the GI50 (OVCAR-8) was > 100 µM (inactive). The GI50 (HOP-62) was > 100 µM (inactive), the GI50 (A549) was > 100 µM (inactive) and the GI50 (MCF7) was > 100 µM (inactive). The GI50 (PC-3) was > 100 µM (inactive), the GI50 (SF-268) was > 100 µM (inactive) and the GI50 (NCI-H460) was > 100 µM (inactive). For the same compound, the GI50 (LOX IMVI) was > 100 µM (inactive), the GI50 (NCI/ADR-RES) was > 100 µM (inactive) and the GI50 (SK-MEL-2) was > 100 µM (inactive). The GI50 (SK-MEL-5) was > 100 µM (inactive), the GI50 (SNB-19) was > 100 µM (inactive) and the GI50 (A498) was > 100 µM (inactive). For the same compound, the GI50 (HT-29) was > 100 µM (inactive), the GI50 (U-251) was > 100 µM (inactive) and the GI50 (ACHN) was > 100 µM (inactive). For the same compound, the GI50 (UACC-257) was > 100 µM (inactive).
For `O=[N+]([O-])c1cc(/N=N/c2c(O)ccc3cc(S(=O)(=O)O)ccc23)c(O)c([N+](=O)[O-])c1`, the GI50 (SF-295) was 44.9 µM (inactive), the GI50 (BT-549) was > 100 µM (inactive) and the GI50 (Hs-578T) was > 100 µM (inactive). For the same compound, the GI50 (SW-620) was 93.1 µM (inactive), the GI50 (EKVX) was > 100 µM (inactive) and the GI50 (HOP-92) was > 100 µM (inactive). The GI50 (OVCAR-3) was 63.1 µM (inactive), the GI50 (M14) was > 100 µM (inactive) and the GI50 (UACC-62) was > 100 µM (inactive). The GI50 (RXF 393) was > 100 µM (inactive), the GI50 (CCRF-CEM) was 18.9 µM (inactive) and the GI50 (NCI-H522) was > 100 µM (inactive). For the same compound, the GI50 (CAKI-1) was > 100 µM (inactive), the GI50 (SK-MEL-28) was > 100 µM (inactive) and the GI50 (MDA-MB-231) was > 100 µM (inactive). The GI50 (SNB-75) was > 100 µM (inactive), the GI50 (Malme-3M) was > 100 µM (inactive) and the GI50 (MOLT-4) was 31.5 µM (inactive). The GI50 (COLO 205) was > 100 µM (inactive), the GI50 (IGROV-1) was > 100 µM (inactive) and the GI50 (NCI-H23) was > 100 µM (inactive). For the same compound, the GI50 (OVCAR-4) was > 100 µM (inactive), the GI50 (DU-145) was > 100 µM (inactive) and the GI50 (OVCAR-5) was > 100 µM (inactive). For the same compound, the GI50 (T47D) was > 100 µM (inactive), the GI50 (SK-OV-3) was > 100 µM (inactive) and the GI50 (MDA-N) was > 100 µM (inactive). For the same compound, the GI50 (K562) was > 100 µM (inactive), the GI50 (HCT-15) was 51.8 µM and the GI50 (TK-10) was > 100 µM (inactive). The GI50 (NCI-H226) was 47.9 µM (inactive), the GI50 (HL-60) was 11.1 µM (inactive) and the GI50 (SN12C) was > 100 µM (inactive). For the same compound, the GI50 (UO-31) was 39.4 µM (inactive), the GI50 (KM12) was 31.9 µM (inactive) and the GI50 (786-0) was > 100 µM (inactive). The GI50 (RPMI-8226) was > 100 µM (inactive), the GI50 (HCT-116) was > 100 µM (inactive) and the GI50 (OVCAR-8) was 35.7 µM (inactive). For the same compound, the GI50 (HOP-62) was > 100 µM (inactive), the GI50 (A549) was > 100 µM (inactive) and the GI50 (PC-3) was 90.6 µM (inactive). The GI50 (SF-268) was > 100 µM (inactive), the GI50 (LOX IMVI) was 49 µM (inactive) and the GI50 (NCI/ADR-RES) was > 100 µM (inactive). The GI50 (SK-MEL-2) was > 100 µM (inactive), the GI50 (SK-MEL-5) was > 100 µM (inactive) and the GI50 (SNB-19) was > 100 µM (inactive). For the same compound, the GI50 (HT-29) was 50.2 µM (inactive), the GI50 (U-251) was > 100 µM (inactive) and the GI50 (ACHN) was > 100 µM (inactive). The GI50 (MDA-MB-435) was > 100 µM (inactive) and the GI50 (UACC-257) was > 100 µM (inactive).
In the case of `COC(=O)[C@@]12OC[C@]34[C@H]([C@@H](O)[C@@H]1O)[C@@]1(C)CC(=O)C(OC(C)=O)=C(C)[C@@H]1C[C@H]3OC(=O)[C@H](OC(=O)C=C(C)C)[C@@H]24`, the GI50 (SF-295) was 0.82 µM (active), the GI50 (BT-549) was 1.52 µM (inactive) and the GI50 (Hs-578T) was 0.857 µM (active). For the same compound, the GI50 (SW-620) was 0.914 µM (active), the GI50 (EKVX) was 1.44 µM (inactive) and the GI50 (HOP-92) was 0.813 µM (active). The GI50 (M14) was 0.755 µM (active), the GI50 (UACC-62) was 0.721 µM (active) and the GI50 (RXF 393) was 0.75 µM (active). The GI50 (CAKI-1) was 2.7 µM (inactive), the GI50 (MDA-MB-231) was 1.81 µM (inactive) and the GI50 (SNB-75) was 1.44 µM (inactive). For the same compound, the GI50 (COLO 205) was 0.764 µM (active), the GI50 (NCI-H23) was 0.574 µM (active) and the GI50 (OVCAR-4) was 0.752 µM (active). The GI50 (DU-145) was 1.34 µM (inactive), the GI50 (OVCAR-5) was 1.75 µM (inactive) and the GI50 (T47D) was 0.977 µM (active). For the same compound, the GI50 (MDA-N) was 0.714 µM (active), the GI50 (HCT-15) was 1.77 µM and the GI50 (TK-10) was 1 µM (active). For the same compound, the GI50 (NCI-H226) was 0.746 µM (active), the GI50 (SN12C) was 1.17 µM (inactive) and the GI50 (UO-31) was 2.64 µM (inactive). The GI50 (KM12) was 0.596 µM (active), the GI50 (786-0) was 0.895 µM (active) and the GI50 (OVCAR-8) was 0.743 µM (active). The GI50 (HOP-62) was 0.607 µM (active), the GI50 (A549) was 0.838 µM (active) and the GI50 (PC-3) was 0.948 µM (active). For the same compound, the GI50 (SF-268) was 0.853 µM (active), the GI50 (NCI/ADR-RES) was 12.8 µM (inactive) and the GI50 (SK-MEL-2) was 0.656 µM (active). For the same compound, the GI50 (SNB-19) was 0.627 µM (active), the GI50 (A498) was 0.43 µM (active) and the GI50 (HT-29) was 0.543 µM (active). For the same compound, the GI50 (ACHN) was 1.82 µM (inactive), the GI50 (MDA-MB-435) was 0.738 µM (active) and the GI50 (UACC-257) was 0.557 µM (active).
